From patent US12642270B2, “Substituted thiophene carboxamides, thiophene carboxylic acids and derivatives thereof” (Bayer Aktiengesellschaft, priority 2019, dated 2026)

Experiment: Log P by HPLC on reversed phase columns (EEC directive 79/831 Annex V.A8)
Assay type: physicochemical
How it was run: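 Reversed-phase HPLC per EEC 79/831 Annex V.A8, LC-UV with 10→95% acetonitrile linear gradient; eluent [a] 0.1% formic acid (acidic), [b] 0.001 M ammonium acetate (neutral), [c] 0.1% phosphoric acid (acidic). Calibrated with C3–C16 straight-chain alkan-2-ones, linear interpolation of retention times; multiple values joined by "+".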

[1] = method marker [a] given with each value, Table 1.1, compounds of formula (I)

Compound	LogP (method [a])	LogP [1]
NC(=S)C1(NC(=O)c2sc(Br)c(Br)c2F)CC1 [1.0900]	2.42^[a]	–
COC(=O)C1(NC(=O)c2cc(Cl)c(F)s2)CC1 [1.0901]	2.13^[a]	–
CC(C)(C)OC(=O)C(NC(=O)c1sc(Cl)c(Cl)c1Br)C1CC1 (stereo not drawn) [1.0902]	5.41^[a]	–
O=C(NC(C(=O)OC1CCC1)C1CC1)c1sc(Cl)c(Cl)c1Br (stereo not drawn) [1.0903]	5.08^[a]	–
CC(C)OC(=O)C(NC(=O)c1sc(Cl)c(Cl)c1Br)C1CC1 (stereo not drawn) [1.0904]	4.89^[a]	–
O=C(NC1(C(=O)OCC2CC2)CCC1)c1sc(Cl)c(Cl)c1Br [1.0905]	4.78^[a]	–
COC(=O)CNC(=O)c1cc(Cl)c(F)s1 [1.0906]	1.90^[a]	–
CCCCOC(=O)C1(NC(=O)c2sc(Br)c(Br)c2Cl)CCC1 [1.0907]	5.20^[a]	–
O=C(NC1(C(=O)OC2CCC2)CCC1)c1sc(Br)c(Br)c1Cl [1.0908]	4.97^[a]	–
O=C(NC1(C(=O)OCc2ccccc2)CCC1)c1sc(Br)c(Br)c1Cl [1.0909]	5.00^[a]	–
C#CCOC(=O)CNC(=O)c1sc(Cl)c(Cl)c1C#N [1.0910]	2.58^[a]	–
C#CCOC(=O)CNC(=O)c1sc(C#N)c(Cl)c1Cl [1.0911]	2.63^[a]	–
C=CCOC(=O)C1(NC(=O)c2sc(C#N)c(Cl)c2Cl)CC1 [1.0912]	3.00^[a]	–
C=CCOC(=O)C1(NC(=O)c2sc(Cl)c(Cl)c2C#N)CC1 [1.0913]	2.91^[a]	–
Cc1c(C(=O)NCC(N)=O)sc(C#N)c1Cl [1.0914]	1.34^[a]	–
Cc1c(C(=O)NCC(N)=O)sc(C#N)c1Br [1.0915]	1.38^[a]	–
N#Cc1c(C(=O)NCC(N)=O)sc(Cl)c1Cl [1.0916]	1.47^[a]	–
CCCOC(=O)C1(NC(=O)c2sc(Br)c(Br)c2Cl)CCC1 [1.0917]	4.78^[a]	–
O=C(NC1(C(=O)OC2CCCCC2)CCC1)c1sc(Br)c(Br)c1Cl [1.0918]	5.89^[a]	–
NC(=S)C1(NC(=O)c2sc(Br)c(Br)c2Cl)CC1 [1.0919]	2.80^[a]	–
CNC(=O)C1(NC(=O)c2sc(Br)c(Br)c2Cl)CC1 [1.0920]	2.31^[a]	–
O=C(NC1(C(=O)OCC2CC2)CCC1)c1sc(Br)c(Br)c1F [1.0924]	4.33^[a]	–
CC(C)(C)OC(=O)C1(NC(=O)c2sc(Br)c(Br)c2F)CCC1 [1.0925]	4.78^[a]	–
CCCCOC(=O)C1(NC(=O)c2sc(Br)c(Br)c2F)CCC1 [1.0926]	4.74^[a]	–

Compound	LogP (method [a])	LogP [1]
O=C(NC1(C(=O)OCc2ccccc2)CCC1)c1sc(Br)c(Br)c1F [1.0927]	4.59^[a]	–
CCCOC(=O)C1(NC(=O)c2sc(Br)c(Br)c2F)CCC1 [1.0928]	4.30^[a]	–
O=C(NC1(C(=O)OC2CCCCC2)CCC1)c1sc(Br)c(Br)c1F [1.0929]	5.28^[a]	–
O=C(NC1(C(=O)OC2CCC2)CCC1)c1sc(Br)c(Br)c1F [1.0930]	4.47^[a]	–
CCOC(=O)CN(C(=O)c1sc(Br)c(Br)c1Cl)C1CC1 [1.0935]	–	3.81^[a]
CCOC(=O)CN(C(=O)c1sc(Cl)c(Br)c1Cl)C1CC1 [1.0936]	–	3.80^[a]
CCOC(=O)CN(C(=O)c1sc(Cl)c(Cl)c1Br)C1CC1 [1.0937]	–	3.81^[a]
CCOC(=O)CN(C(=O)c1sc(Br)c(Br)c1F)C1CC1 [1.0938]	–	3.64^[a]
COC(=O)C(C)(Cc1ccccc1)NC(=O)c1sc(Br)c(Br)c1F (stereo not drawn) [1.0954]	–	4.64^[a]
COC(=O)C(Cc1ccc(Cl)cc1)NC(=O)c1sc(Br)c(Br)c1F (stereo not drawn) [1.0955]	–	4.52^[a]
C#CCOC(=O)CNC(=O)c1sc(Br)c(Br)c1Cl [1.0959]	–	3.20^[a]
O=C(CNC(=O)c1sc(Br)c(Br)c1Cl)OC1CC1 [1.0960]	–	3.39^[a]
C=CCOC(=O)CNC(=O)c1sc(Br)c(Br)c1Cl [1.0961]	–	3.50^[a]
C=CCOC(=O)C1(NC(=O)c2sc(C#N)c(Br)c2C)CC1 [1.0962]	–	2.81^[a]
C#CCOC(=O)C1(NC(=O)c2sc(C#N)c(Br)c2C)CC1 [1.0963]	–	2.61^[a]
Cc1c(C(=O)NC2(C(=O)OC(C)C)CC2)sc(C#N)c1Br [1.0964]	–	2.93^[a]
Cc1c(C(=O)NCC(=O)OC2CCCC2)sc(C#N)c1Br [1.0965]	–	3.24^[a]
CCCOC(=O)C1(NC(=O)c2sc(C#N)c(Br)c2C)CC1 [1.0966]	–	2.98^[a]
Cc1c(C(=O)NCC(=O)Oc2ccccc2)sc(C#N)c1Br [1.0967]	–	3.10^[a]
Cc1c(C(=O)NC2(C(=O)OC3CCC3)CC2)sc(C#N)c1Br [1.0968]	–	3.13^[a]
CCCCOC(=O)C1(NC(=O)c2sc(C#N)c(Br)c2C)CC1 [1.0969]	–	3.36^[a]
Cc1c(C(=O)NC2(C(=O)OCC(C)C)CC2)sc(C#N)c1Br [1.0970]	–	3.33^[a]
Cc1c(C(=O)NC2(C(=O)OC(C)(C)C)CC2)sc(C#N)c1Br [1.0971]	–	3.28^[a]
CCCCOC(=O)CNC(=O)c1sc(C#N)c(Br)c1C [1.0972]	–	3.23^[a]

Compound	LogP (method [a])	LogP [1]
Cc1c(C(=O)NCC(=O)OCc2ccccc2)sc(C#N)c1Br [1.0973]	–	3.26^[a]
CCOC(=O)C(NC(=O)c1sc(C#N)c(Br)c1C)C1CC1 (stereo not drawn) [1.0974]	–	3.15^[a]
Cc1c(C(=O)NC2(C(=O)OCc3ccccc3)CC2)sc(C#N)c1Br [1.0975]	–	3.39^[a]
CNC(=S)C1(NC(=O)c2sc(Br)c(Br)c2F)CC1 [1.0976]	–	2.82^[a]
CN(C)C(=S)C1(NC(=O)c2sc(Br)c(Br)c2F)CC1 [1.0977]	–	2.93^[a]
COC(=O)C1(NC(=O)c2sc(Cl)c(C)c2Cl)CC1 [1.0978]	–	2.86^[a]
COC(=O)C1(NC(=O)c2sc(Br)c(Br)c2F)CCC1 [1.0979]	–	3.32^[a]
Cc1c(C(=O)NC2(C(=O)OC3CCCC3)CC2)sc(C#N)c1Br [1.0980]	–	3.36^[a]
Cc1c(C(=O)NCC(=O)OC(C)(C)C)sc(C#N)c1Br [1.0981]	–	3.14^[a]
Cc1c(C(=O)NCC(=O)OCC2CC2)sc(C#N)c1Br [1.0982]	–	2.86^[a]
CCCOC(=O)CNC(=O)c1sc(Br)c(Br)c1Cl [1.0983]	–	3.76^[a]
N#CCCOC(=O)CNC(=O)c1sc(Br)c(Br)c1Cl [1.0984]	–	2.76^[a]
O=C(CNC(=O)c1sc(Br)c(Br)c1Cl)OCC1CC1 [1.0985]	–	3.79^[a]
CC(C)(C)OC(=O)CNC(=O)c1sc(Br)c(Br)c1Cl [1.0986]	–	4.20^[a]
CCCCOC(=O)CNC(=O)c1sc(Br)c(Br)c1Cl [1.0987]	–	4.22^[a]
O=C(CNC(=O)c1sc(Br)c(Br)c1Cl)OC1CCCC1 [1.0988]	–	4.28^[a]
O=C(CNC(=O)c1sc(Br)c(Br)c1Cl)Oc1ccccc1 [1.0989]	–	3.93^[a]
O=C(CNC(=O)c1sc(Br)c(Br)c1Cl)OCc1ccccc1 [1.0990]	–	4.15^[a]
CCOC(=O)C(NC(=O)c1sc(Br)c(Br)c1Cl)C1CC1 (stereo not drawn) [1.0991]	–	4.34^[a]
C#CCOC(=O)CNC(=O)c1sc(C#N)c(Br)c1C [1.0992]	–	2.43^[a]
Cc1c(C(=O)NCC(=O)OC2CC2)sc(C#N)c1Br [1.0993]	–	2.54^[a]
C=CCOC(=O)CNC(=O)c1sc(C#N)c(Br)c1C [1.0994]	–	2.65^[a]
CCCOC(=O)CNC(=O)c1sc(C#N)c(Br)c1C [1.0995]	–	2.81^[a]
Cc1c(C(=O)NCC(=O)OCCC#N)sc(C#N)c1Br [1.0996]	–	2.09^[a]
